Format in all cases: in vivo
Experiment [1] deals with Botrytis cinerea (BOTRCI). In words: Field assessment of gray mold on strawberry. From the text:
On strawberry: A fungicidal treatment containing Compound I, applied in a 5% EC formulation and tank mixed with an adjuvant (Trycol, 50% w/w at 0.2% v/v), was sprayed on strawberry plants (FRAAN, Candonga variety) at rates of 50, 150 and 200 grams of active ingredient per hectare (g ai/ha). The trial was based on four broadcast applications during the growing season at approximately 10 day intervals with grey mold inoculation after the last application (plant growth stage B85). The treatment was part of an experimental trial designed as a randomized complete block with four replications and a plot size of approximately 2.0×5.0 m. Formulations of compound I were applied at water volume of 800 L/ha, using a backpack plot sprayer (BKPCKENG, solo 433; HCSOLID—Albutz ATR80 Yellow nozzle) and pressurized at 300 kPa.
Disease severity was recorded as a percentage of fruit incidence of damaged fruits on a random sample of 100 fruits per plot. Gray mold infection was assessed twice at 10 days after the third application (10DAAC) and 10DAAD. Area under the disease progress curve (AUDPC) was calculated for each plot using the sets of recorded incidence data. Relative AUDPC (% control based on AUDPC) was calculated as percent of the nontreated control.

For experiment [2], the system named is Rhizopus stolonifer (RIZPST). The experiment can be described thus: Field microplot assessment on Rhizopus rot on apricots. The settings on record: field grown apricots. From the text:
A field trial assessing the utility of Compound I on rot diseases of stone fruits was done using apricots in a microplot method, part of an experimental trial designed as a randomized complete block with four replications. In a microplot method, two mature fruits on a single branch or cluster of fruits were selected for each replication (for a total of 10 replications) instead of using an entire replication. Colored flagging identified treatments. Fungicidal treatments containing Compound I, applied in a 5% EC formulation and tank mixed with an adjuvant (Trycol, 50% w/w at 0.2% v/v), were sprayed on apricots (PRNAR) at rates of 50, 100, and 150 grams of active ingredient per hectare (g ai/ha). The applications to the selected mature apricots were done at 7 days before harvest using a hand held manual spray bottle at a water volume of 500 L/ha. One day after application, a ZipLoc plastic bag was placed over the fruit or fruit cluster and an inoculation mix of MONIFC (Rhizopus was from natural population present in the orchard) was sprayed inside covering the fruits. The plastic bags were removed after 24 hours. At harvest, the fruits were collected in the field and placed in plastic Tupperware containers. 150 mL of de-ionized water was poured in the bottom of the Tupperware containers and the fruits were sprayed with a light mist of water. The containers were brought to the lab, enclosed in a large trash bag to keep the humidity high, and incubated on a lab bench at approximately 23° C. Visual disease incidence was assessed during the trial at 9 and 16 days after application. Area under the disease progress curve (AUDPC) was calculated for each plot using the sets of recorded incidence data. Relative AUDPC (% control based on AUDPC) was calculated as percent of the nontreated control.

The subject of experiment [3] is Alternaria mali (ALTEMA). In words: Field assessment of leaf spot of apple, protectant and curative trials. The procedure:
Assessment of compound I on leaf spot of apple (ALTEMA), in both protectant and curative fashion, was performed in two separate field trials. For the protectant trial, a fungicidal treatment containing a 10% SC formulation of Compound I, either alone or with an adjuvant (Agnique BP420, 50% w/w at 0.3% v/v; or ETHOMEEN T18H, 50% w/w at 0.2% v/v), was sprayed on the plant canopy of apple trees (Hongxing variety) six times during the growing season of apples with each application coming at 15 day intervals. Formulations of Compound I, with or without adjuvants, were applied at rates of 100, 125 and 150 grams of active ingredient per hectare (g ai/ha) and were applied at water volume of 4500 L/ha. The experimental plots were inoculated three times with the leaf spot pathogen, the first inoculation performed at 2 days after the first application (Application A, 2DAAA), with the following applications at 2DAAC and 2DAAD. The treatment was part of an experimental trial designed as a randomized complete block with three replications and a plot size of 3 trees.
For the curative trial, a fungicidal treatment containing a 10% SC formulation of Compound I, either alone or with an adjuvant (Agnique BP420, 50% w/w at 0.3% v/v; or ETHOMEEN T18H, 50% w/w at 0.2% v/v), was sprayed on the plant canopy of apple trees (Hongxing variety) six times during the growing season of apples with each application coming at 15 day intervals. Formulations of Compound I, with or without adjuvants, were applied at rates of 100, 125 and 150 grams of active ingredient per hectare (g ai/ha) and were applied at water volume of 4500 L/ha. The experimental plots were inoculated three times with the leaf spot pathogen, the first inoculation performed at 5 days before the first application. The second inoculation was at 5 days before the third application and the third inoculation coming at 5 days before the fourth application. The treatment was part of an experimental trial designed as a randomized complete block with three replications and a plot size of 3 trees.
Disease incidence was assessed as percentage of diseased foliage per plant. Apple leaf spot infection was assessed six times, with the last assessment coming at 90 days after the first application. Area under the disease progress curve (AUDPC) was calculated for each plot using the sets of recorded visual infection data. Relative AUDPC (% control based on AUDPC) was calculated as percent of the nontreated control.

Setting [4] is: 100 g ai/ha, adjuvant ETHOMEEN, 10% SC.
The mark [5] stands for this setting: 100 g ai/ha, adjuvant None, 10% SC.
[6] abbreviates: 125 g ai/ha, adjuvant Agnique BP420, 10% SC.
Where [7] appears, read: 125 g ai/ha, adjuvant ETHOMEEN, 10% SC.
Where [8] appears, read: 150 g ai/ha, adjuvant ETHOMEEN, 10% SC.

For `COc1ccnc(C(=O)N[C@@H](C)C(=O)O[C@@H](C)C(c2ccc(F)cc2)c2ccc(F)cc2)c1OC(C)=O` [Compound I, (S)-1,1-bis(4-fluorophenyl)propan-2-yl (3-acetoxy-4-methoxypicolinoyl)-L-alaninate], the “Percent control (AUDPC) from fruit infection assessments” value in experiment [1] (50 g ai/ha) was “B (51-75)”; in experiment [1] (150 g ai/ha) it was “A (76-100)”; in experiment [1] (200 g ai/ha) it was “A (76-100)”. Further, the “Percent control (AUDPC) from fruit incidence, RIZPST” value in experiment [2] (50 g ai/ha) was “B (51-75)”; in experiment [2] (100 g ai/ha) it was “C (26-50)”; in experiment [2] (150 g ai/ha) it was “C (26-50)”. The “% Control Curative (AUDPC, leaf infection)” value in experiment [3] (setting [4]) is listed as “A (76-100)”; in experiment [3] (setting [5]), “B (51-75)”; in experiment [3] (setting [6]), “A (76-100)”; in experiment [3] (setting [7]), “A (76-100)”; in experiment [3] (setting [8]), “A (76-100)”. In addition, the “% Control Protectant (AUDPC, leaf infection)” value in experiment [3] (setting [4]) is “A (76-100)”; in experiment [3] (setting [5]), “B (51-75)”; in experiment [3] (setting [6]), “A (76-100)”; in experiment [3] (setting [7]), “A (76-100)”; in experiment [3] (setting [8]), “A (76-100)”.
